{"source": "patent US5308856A", "about": "“Thiazolidine-2,4-dione derivatives, salts and preparation processes thereof” (Kyorin Pharmaceutical Co., Ltd., priority 1991, dated 1994)", "key": {"[1]": {"molecular_target": "T1, aldose reductase extracted from rat lens (Rattus norvegicus, UniProt P07943)", "T1 construct": "aldose reductase extracted from rat lens; from tissue; host or cells: rat lens", "test": "Inhibition of Aldose Reductase in Vitro", "assay_type": "biochemical", "excerpt": "Inhibition of Aldose Reductase in Vitro\nAccording to the method of Hyman and Kinoshita (J. Biol. Chem., 240, 877, 1965), inhibitory activity of the compound of Example 23 on aldose reductase extracted from rat lens was investigated. As a result, the following IC50 value was obtained (Table 3)."}, "blood glucose [2]": {"test_system": "blood glucose", "test": "Enhancement of Insulin Sensitivity in Rats", "assay_type": "in vivo", "conditions": "10 mg/kg/day p.o. once daily 5 days, fasted 18 h, insulin 0.1 unit/kg i.p., n = 5, *P < 0.01, reference (insulin only) 11.0 ± 0.8", "procedure": "Enhancement of Insulin Sensitivity in Rats\nAfter rats were orally administered with the compound of Example 1 once daily for 5 days at 10 mg/kg/day, they were fasted for 18 hours and then insulin was intraperitoneally injected at 0.1 unit/kg. Blood samples were collected from the tail vein 0 and 1 hour after the injection of insulin for the determination of blood glucose (Table 1)."}, "blood glucose [3]": {"test_system": "blood glucose", "test": "Improvement of Glucose Tolerance in Genetically Obese Mice (OGTT)", "assay_type": "in vivo, Genetically obese mice (CS57BL ob/ob mice)", "conditions": "ob/ob mice, fasted 18 h, glucose 2 g/kg p.o.", "procedure": "Improvement of Glucose Tolerance in Genetically Obese Mice\nGenetically obese mice (CS57BL ob/ob mice) were orally administered with the compound of Example 1 once daily for 5 days at 10, 30 or 100 mg/kg/day, respectively. They were fasted for 18 hours and then 2 g/kg of glucose was orally administered. Blood samples were collected from the tail vein 0, 30, 60 and 120 minutes after the administration of glucose for the determination of blood glucose (Table 2)."}}, "data": [{"molecule": "O=C1NC(=O)C(c2ccc(N3Cc4ccccc4C3=O)cc2)S1", "note": "(centres unmarked) [Example 1, 5-(4-(1-Oxoisoindoline-2-yl)Phenyl)Thiazolidine-2,4-Dione]", "values": [{"measurement": "IC50", "setting": "[1]", "value": 90, "unit": "nM"}, {"measurement": "0 hour value-1 hour value (blood glucose)", "setting": "blood glucose [2]", "value": "23.0 ± 1.2", "unit": "mg %"}, {"measurement": "OGTT (% of control)", "setting": "blood glucose [3]; 10 mg/kg/day p.o. once daily 5 days", "value": "98.2 % of control"}, {"measurement": "OGTT (% of control)", "setting": "blood glucose [3]; 30 mg/kg/day p.o. once daily 5 days", "value": "84.1 % of control"}, {"measurement": "OGTT (% of control)", "setting": "blood glucose [3]; 100 mg/kg/day p.o. once daily 5 days", "value": "81.1 % of control"}]}]}
